Test results taken from patent US20250152616A1, “COMPOSITIONS FOR AND METHODS OF TREATING, PREVENTING, AND/OR MITIGATING PAIN” (Duke University, priority 2022, published 2025).

Assays:
ADORA1 = target: T1, ADORA1 (Mus musculus, UniProt Q60612); experiment: Fura-2 calcium imaging of NGF-exposed, adenosine-treated DRG neurons with ADORA1 inhibitor; assay type: cell-based; conditions: NGF-exposed DRG treated with adenosine 5 μM plus DPCPX 100 nM; capsaicin 100 nM; vehicle DMSO
T1 construct: endogenous in cells; host or cells: primary dissociated mouse L3-L4 DRG neurons
T1 sequence (Q60612 1-326): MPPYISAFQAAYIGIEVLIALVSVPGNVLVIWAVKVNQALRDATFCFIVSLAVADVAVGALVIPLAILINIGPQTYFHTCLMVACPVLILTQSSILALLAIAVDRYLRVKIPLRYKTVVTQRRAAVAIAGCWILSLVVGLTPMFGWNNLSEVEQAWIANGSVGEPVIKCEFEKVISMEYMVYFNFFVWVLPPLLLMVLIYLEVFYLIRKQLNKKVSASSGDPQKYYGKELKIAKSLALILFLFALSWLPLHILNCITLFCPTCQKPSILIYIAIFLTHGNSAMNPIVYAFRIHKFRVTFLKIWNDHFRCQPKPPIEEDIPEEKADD
From the text: DRG were isolated from mice using a modified version of the previously described protocol (Perner C, et al. (2021) STAR Protoc. 2:100333). Briefly, mice were euthanized and dosed in 70% ethanol to prevent fur contamination. Mice were positioned prone, and an incision was made along the spine from the neck to the base of the tail. Under a dissecting microscope, the surrounding soft tissue of the spinal column was removed from the dorsal side by Friedman-Pearson Rongeurs (Fine Science Tools, Foster City, CA, Cat #16021-14) from the mid thoracic region to the lumbosacral joint. The vertebral bone surrounding the DRG was gently crushed and removed with rongeurs exposing the spinal cord. The DRG were carefully extracted near the foramen between the vertebral levels. L3 and L4 DRG were collected for analyses. […] For cell culture experiments, collected DRG were digested in digestion solution comprised of collagenase type II (Worthington, Lakewood, NJ, Cat #LS004176) and dispase (1.5 mg/mL each) dissolved in DMEM/F12. DRG were agitated in a digestion solution on an orbital shaker at 60 rpm and 37° C. for 20 minutes and repeated thrice with fresh digestion solution. […]

ADORA2B = target: T2, ADORA2B (Mus musculus, UniProt Q60614); experiment: RT-qPCR of osteogenic genes in BM-MSCs with ADORA2B inhibitor; assay type: cell-based; conditions: BM-MSCs with adenosine 30 μg/mL plus PSB 603, 14 days, vs vehicle DMSO
T2 construct: endogenous in cells; host or cells: primary mouse bone marrow mesenchymal stromal cells (BM-MSCs), passage 1-2
T2 sequence (Q60614 1-332): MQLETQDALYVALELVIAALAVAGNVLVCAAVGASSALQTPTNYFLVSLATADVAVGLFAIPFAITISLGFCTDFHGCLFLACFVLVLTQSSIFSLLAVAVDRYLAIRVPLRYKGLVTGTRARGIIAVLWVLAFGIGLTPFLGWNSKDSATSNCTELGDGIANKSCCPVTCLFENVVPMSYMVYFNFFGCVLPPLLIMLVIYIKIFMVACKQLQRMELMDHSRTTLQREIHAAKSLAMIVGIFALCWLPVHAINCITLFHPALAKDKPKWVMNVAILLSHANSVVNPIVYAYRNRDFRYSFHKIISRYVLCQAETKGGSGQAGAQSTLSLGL
Method: MSCs were isolated as previously described with some modifications (Shih Y B, et al. (2019) Sci Adv. 5:eaax1387). Briefly, the femurs, tibiae, vertebrae of mice were harvested, crushed with pestle and mortar in harvest buffer (1% v/v FBS in PBS) to release bone marrow (BM) tissue, filtered through a 40-μm cell strainer, and centrifuged at 200 rcf. Cells were seeded in a 24-well plate at a cell density of 1 million cells/cm^2 in growth media (GM) containing α-MEM, FBS (10% v/v, ThermoFisher, Cat #16000044), penicillin/streptomycin (10000 U/mL; 1% v/v) and cultured in humidified incubator (37° C., 5% CO2). The medium was replaced after 3 days and further cultured for 6 days before passage. […]
Cells, DRG, or bone/marrow tissues were analyzed for gene expression by quantitative real-time polymerase chain reaction (RT-qPCR). […] Quantitative PCR was performed with iTaq Universal SYBR green reagent (Bio-Rad, Cat #1725124) with denaturation at 95° C. for 30 sec for one cycle, and amplification (denaturation+annealing/extension) at 95° C. for 5 sec and 60° C. for 30 sec for 40 cycles on a polymerase chain reaction (PCR) cycler (Bio-Rad, CFX96 Touch). […]
The expression level of each target gene was normalized to the housekeeping gene and to their respective controls and presented as fold change expressed as 2^−ΔΔCt values. […]

TRPV1 = experiment: Immunofluorescence staining of TRPV1 in cultured DRG neurons; assay type: cell-based, mouse; conditions: NGF 200 ng/mL, 1 day incubation, DRG neurons from unfractured mice
Method: To culture DRG neurons, culture media composed of Neurobasal-A medium (ThermoFisher, Cat #10888022), 2% B27 supplement (ThermoFisher, Cat #17504044), 1% glutamax (ThermoFisher, Cat #35050061), and penicillin/streptomycin (10000 U/mL, 1% v/v, ThermoFisher, Cat #15140122) was used. Cells were treated with or without NGF (200 ng/mL) for 24 hr prior to immunofluorescence imaging. Cells were exposed to NGF (200 ng/mL) for 24 hr (long-term) for calcium and FluoVolt imaging. Cells were cultured on custom-made glass surface with silicone wells. Briefly, cover slides (#1 thickness) were cleaned by agitating in 0.5 M NaOH for 30 minutes followed by subsequent rinsing in dH2O followed by 100% ethanol and air-dried. Wells were produced in cured polydimethylsiloxane (PDMS, Sylgard 184, Ellsworth Adhesives, Germantown, WI) with a 8-mm biopsy punch and bonding to the cover slides. […]
Sections were heated for antigen retrieval in citrate buffer (MilliporeSigma, Cat #C9999) for 20 min, permeabilized in 0.1% Triton X-100 in PBS for 10 min, followed by blocking for 1 hr in blocking solution comprised of 3% BSA, 0.26 M glycine, 5% normal donkey serum in Tris buffered saline (TBS) at room temperature. […] Fluorescence intensity was quantified by ImageJ software and presented in arbitrary units.

dissociated DRG neurons [1] = experiment: Fura-2 calcium imaging of dissociated DRG neurons stimulated with capsaicin; assay type: cell-based, mouse; conditions: NGF 200 ng/mL 24 hr vs no NGF; capsaicin 100 nM
From the text: DRG were isolated from mice using a modified version of the previously described protocol (Perner C, et al. (2021) STAR Protoc. 2:100333). Briefly, mice were euthanized and dosed in 70% ethanol to prevent fur contamination. Mice were positioned prone, and an incision was made along the spine from the neck to the base of the tail. Under a dissecting microscope, the surrounding soft tissue of the spinal column was removed from the dorsal side by Friedman-Pearson Rongeurs (Fine Science Tools, Foster City, CA, Cat #16021-14) from the mid thoracic region to the lumbosacral joint. The vertebral bone surrounding the DRG was gently crushed and removed with rongeurs exposing the spinal cord. The DRG were carefully extracted near the foramen between the vertebral levels. L3 and L4 DRG were collected for analyses. Dissected DRG were placed directly into ice-cold DMEM-F12 medium (ThermoFisher, Cat #11320033) for in vitro culture, Trizol (ThermoFisher, Cat #15596018) for PCR analyses, or 4% PFA for histology. For cell culture experiments, collected DRG were digested in digestion solution comprised of collagenase type II (Worthington, Lakewood, NJ, Cat #LS004176) and dispase (1.5 mg/mL each) dissolved in DMEM/F12. DRG were agitated in a digestion solution on an orbital shaker at 60 rpm and 37° C. for 20 minutes and repeated thrice with fresh digestion solution. Next, the digestion solution was replaced with trypsin-EDTA (0.025%) in DMEM/F12 and incubated for an additional 15 min to disrupt the remaining cell-to-cell adhesions. The solution was then replaced with DMEM/F12 and FBS (1:3) to neutralize trypsin. DRG were triturated to create a cell suspension and gently layered onto 15% bovine serum albumin (BSA) solution without mixing and centrifuged for 6 min at 280 g with minimal acceleration and no deceleration to separate non-neuronal cells and debris (Owen D E, et al. (2012) Methods Mol Biol. 846:179-187). […]
Intracellular cytosolic Ca^2+ was evaluated by Fura-2 loaded DRG neurons (Khomula E V, et al. (2019) J Neurosci. 39:7061-7073). […]

dissociated DRG neurons [2] = experiment: FluoVolt membrane potential imaging of dissociated DRG neurons; assay type: cell-based, mouse; conditions: NGF exposure 1 day; capsaicin stimulation
From the text: DRG were isolated from mice using a modified version of the previously described protocol (Perner C, et al. (2021) STAR Protoc. 2:100333). Briefly, mice were euthanized and dosed in 70% ethanol to prevent fur contamination. Mice were positioned prone, and an incision was made along the spine from the neck to the base of the tail. Under a dissecting microscope, the surrounding soft tissue of the spinal column was removed from the dorsal side by Friedman-Pearson Rongeurs (Fine Science Tools, Foster City, CA, Cat #16021-14) from the mid thoracic region to the lumbosacral joint. The vertebral bone surrounding the DRG was gently crushed and removed with rongeurs exposing the spinal cord. The DRG were carefully extracted near the foramen between the vertebral levels. L3 and L4 DRG were collected for analyses. Dissected DRG were placed directly into ice-cold DMEM-F12 medium (ThermoFisher, Cat #11320033) for in vitro culture, Trizol (ThermoFisher, Cat #15596018) for PCR analyses, or 4% PFA for histology. For cell culture experiments, collected DRG were digested in digestion solution comprised of collagenase type II (Worthington, Lakewood, NJ, Cat #LS004176) and dispase (1.5 mg/mL each) dissolved in DMEM/F12. […]
DRG neuron potential changes were evaluated with FluoVolt, a voltage sensitive indicator dye (ThermoFisher, Cat #F10488). […]

Compound: CCCn1c(=O)c2[nH]c(C3CCCC3)nc2n(CCC)c1=O [DPCPX, 8-Cyclopentyl-1,3-dipropylxanthine]
- average and peak fluorescence intensity vs vehicle control lacking DPCPX (ADORA1): increase

Compound: CCCn1c(=O)[nH]c2nc(-c3ccc(S(=O)(=O)N4CCN(c5ccc(Cl)cc5)CC4)cc3)[nH]c2c1=O [PSB 603]
- adenosine mediated upregulation of osteogenic markers (Runx2, Sp7, Ibsp) (ADORA2B): attenuated

Compound: NGF: nerve growth factor, used as model molecule for in vitro sensitization of DRG neurons
- TRPV1 receptor expression in TUBB3-positive neurons (TRPV1): significantly increased
- functional responses of DRG neurons to capsaicin (Fura-2 intensity) (dissociated DRG neurons [1]): increased
- membrane potential of DRG neurons (FluoVolt) (dissociated DRG neurons [2]): increased
